Patent publication US7982049B2, “α-form or β-form crystal of acetanilide derivative” (Astellas Pharma Inc., priority 2001, dated 2011)
Entries after “also recorded” stand apart in the source; their conditions may differ. Structures can show the parent of a compound that is named as a salt.

Legend:
[1] = Hygroscopicity test (VTI SGA-100); type: physicochemical; details: for hygroscopicity (in words): 5 to 95% of relative humidity; for relative humidity from which an increase in the weight is observed: measurement interval 5% of relative humidity; for stability of the crystal (in words): judged with the hygroscopicity result
Description: The hygroscopicity was measured using VTI SGA-100 under the following conditions. Temperature: 25° C., measurement range: from 5 to 95% of relative humidity, measurement interval: 5% of relative humidity.

Male kk mice = assay: Hypoglycemic test in kk mice (insulin resistance model: obesity and hyperglycemia); type: in vivo; details: oral, once daily for 7 days, blood glucose 15 to 18 hours after final administration, n=6
Description: Hypoglycemic Test in kk Mice (Insulin Resistance Model: Obesity and Hyperglycemia) Male kk mice (blood glucose level: 200 mg/dL or more) were measured for blood glucose level under feeding and then randomly classified into groups. The drug to be tested was compulsorily orally administered once daily for 7 days, and the blood glucose level after 15 to 18 hours from the final administration was compared with that before the administration (n=6). The blood was collected from a tail vein of the mouse using a glass capillary (previously treated with heparin), a protein was removed therefrom, and the amount of glucose in the supernatant (mg/dL) was measured by colorimetric determination by means of the glucose oxidase method. Further, a dose by which the blood glucose level was reduced by 30% as compared with that before the administration of the drug to be tested was expressed as an ED30 value.

[2] = Solubility in recrystallization solvent; type: physicochemical; details: 37% to 50% ethanol aqueous solution, as compared with the α-form crystal
[3] = 25° C., listed as (R)-2-(2-aminothiazol-1-4-yl)-4′-[2-[(2-hydroxy-2-phenylethyl)amino]ethyl]-aceta, dihydrochloride

Nc1nc(CC(=O)Nc2ccc(CCNC[C@H](O)c3ccccc3)cc2)cs1 [dihydrochloride crystal, (R)-2-(2-aminothiazol-4-yl)-4′-[2-[(2-hydroxy-2-phenylethyl)amino]ethyl]-acetanilide dihydrochloride, reference compound]
hygroscopicity (in words) ([1]; 25° C., dihydrochloride): strongly hygroscopic | hygroscopicity (in words) [1, 3]: strong hygroscopicity | hygroscopicity (in words) ([1]; 25° C., listed as (R)-2-(2-aminothiazol-4-yl)-4′-[2-[(2-hydroxy-2-phenylethyl)amino]ethyl]-acetani, dihydrochloride): strong hygroscopicity | hygroscopicity (in words) ([1]; 25° C., listed as dihydrochloride, dihydrochloride): strong hygroscopicity | moisture held ([1]; 25° C., at a relative humidity of 90%): about 14% | relative humidity from which an increase in the weight is observed ([1]; 25° C., dihydrochloride): 80% | relative humidity from which an increase in the weight is observed [1, 3]: about 80% | stability of the crystal (in words) ([1]; dihydrochloride): unstable | stability of the crystal (in words) ([1]; listed as (R)-2-(2-aminothiazol-4-yl)-4′-[2-[(2-hydroxy-2-phenylethyl)amino]ethyl]-acetani, dihydrochloride): unstable | stability of the crystal (in words) ([1]; listed as dihydrochloride, dihydrochloride): unstable

Nc1nc(CC(=O)Nc2ccc(CCNC[C@H](O)c3ccccc3)cc2)cs1 [α-form crystal, (R)-2-(2-aminothiazol-4-yl)-4′-[2-[(2-hydroxy-2-phenylethyl)amino]ethyl]acetanilide]
hygroscopicity (in words) ([1]; 25° C.): not exhibiting hygroscopicity; also recorded: does not exhibit hygroscopicity; also recorded: did not exhibit hygroscopicity | moisture-holding amount ([1]; 25° C., over the entire range of relative humidity from 5% to 95%): not more than 0.2% | stability of the crystal (in words) [1]: stable; also recorded: excellent in stability | ED30 value (dose by which the blood glucose level was reduced by 30% as compared with that before the administration) (Male kk mice): not more than 3.5 mg/kg/day

Nc1nc(CC(=O)Nc2ccc(CCNC[C@H](O)c3ccccc3)cc2)cs1 [β-form crystal, (R)-2-(2-aminothiazol-4-yl)-4′-[2-[(2-hydroxy-2-phenylethyl)amino]ethyl]acetanilide]
hygroscopicity (in words) ([1]; 25° C.): weak hygroscopicity | relative humidity from which an increase in the weight is observed ([1]; 25° C.): about 20% | moisture held ([1]; 25° C., relative humidity not stated for the value (measurement range 5 to 95%)): about 3% | solubility in a recrystallization solvent [2]: high solubility
